Source: patent publication US10028961B2, “Therapeutically active compounds and their methods of use” (AGIOS PHARMACEUTICALS, INC., priority 2013, dated 2018)
Like-named read-outs stand apart in the source and are kept apart here.

Experiments:
[1] = test system: U87MG pLVX-IDH2 R140Q-neo cells; assay: U87MG pLVX-IDH2 R140Q-neo cell based assay, 2-HG by LC-MS; conditions: Homo sapiens, U-87 MG
IDH2 R140Q = IDH2 R140Q (Homo sapiens (Human), UniProt P48735, R140Q); assay: In vitro assay for IDH2m R140Q inhibitors, cofactor depletion assay; type: biochemical; conditions: IDH2 R140Q enzyme
Procedure, shortened: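 Remaining cofactor measured fluorimetrically: diaphorase/resazurin Stop Mix […], halting the reaction. Before that, mutant enzyme and compound sat 1 h at RT, then substrate mix (4 μM NADPH, 1.6 mM α-KG) was added for 16 h at RT.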

[2] = test system: Neurosphere cells (TS603); assay: Cellular assay for IDH1m R132H inhibitors, 2-HG by LC-MS in neurosphere cells (TS603); type: cell-based; conditions: 2-HG in media at 48 hours
Procedure, shortened: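 TS603 neurosphere cells in NeuroCult medium were dosed with compound (0.25% DMSO final) at 37 C, 5% CO2. After 48 hours, medium 2-HG was measured by LC-MS. At 72 hours, viability was read by CellTiter-Glo luminescence.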

[3] = target: IDH1 wt/IDH1 R132H heterodimer (Homo sapiens (Human), UniProt O75874, R132H); assay: In vitro assay for IDH1m R132H inhibitors, IDH1 wt/IDH1 R132H heterodimer, NADPH depletion (diaphorase/resazurin); type: biochemical
Procedure, shortened: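 Read-out is NADPH left after α-KG reduction to 2-HG, measured via resorufin fluorescence after 5 min diaphorase/resazurin step at 25° C. Enzyme is sf9-expressed IDH1wt-his/IDH1R132H-flag heterodimer, pre-incubated 1 hr at room temperature with compound and cofactor. IC50s from DMSO stocks diluted 1:50.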

[4] = IDH1 wt/R132H heterodimer, NADPH/NADP, not saturated, read-out: IDH1 wt/R132H NADPH/NADP IC50 not saturated
[5] = IDH1 wt/IDH1 R132H heterodimer, 300 μM NADP (saturated), read-out: IDH1 wt/R132H NADPH/NADP IC50 saturated

Sequence of IDH1 wt/IDH1 R132H heterodimer (O75874 whole entry R132H): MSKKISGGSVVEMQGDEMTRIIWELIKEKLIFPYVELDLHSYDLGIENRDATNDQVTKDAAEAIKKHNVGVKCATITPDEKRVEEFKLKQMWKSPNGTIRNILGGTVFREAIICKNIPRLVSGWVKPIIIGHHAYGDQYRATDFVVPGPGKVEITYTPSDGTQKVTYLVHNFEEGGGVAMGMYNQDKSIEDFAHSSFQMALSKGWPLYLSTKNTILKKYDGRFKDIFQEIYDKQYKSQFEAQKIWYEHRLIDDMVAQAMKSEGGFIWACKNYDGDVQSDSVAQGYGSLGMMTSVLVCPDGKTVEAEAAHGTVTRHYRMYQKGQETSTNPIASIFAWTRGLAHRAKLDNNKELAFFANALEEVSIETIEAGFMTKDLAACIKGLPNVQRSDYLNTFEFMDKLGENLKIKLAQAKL
Sequence of IDH1 wt/IDH1 R132H heterodimer (O75874 whole entry, stated change not applied): as the sequence (O75874 whole entry R132H) above, with H132R counted along it
Sequence of IDH2 R140Q (P48735 40-452 R140Q): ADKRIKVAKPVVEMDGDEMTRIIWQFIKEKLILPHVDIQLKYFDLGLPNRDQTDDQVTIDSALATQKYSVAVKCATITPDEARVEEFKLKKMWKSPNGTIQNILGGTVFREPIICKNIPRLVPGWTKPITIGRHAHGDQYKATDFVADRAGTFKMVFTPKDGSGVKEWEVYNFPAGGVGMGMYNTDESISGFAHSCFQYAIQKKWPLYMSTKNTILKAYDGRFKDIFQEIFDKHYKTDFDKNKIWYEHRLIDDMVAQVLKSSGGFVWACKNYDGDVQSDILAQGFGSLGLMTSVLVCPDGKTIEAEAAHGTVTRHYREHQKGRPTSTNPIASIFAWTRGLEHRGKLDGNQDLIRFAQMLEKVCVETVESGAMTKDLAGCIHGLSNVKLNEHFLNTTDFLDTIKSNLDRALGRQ

IC50 [1] [nM] | IC50 (IDH2 R140Q) [nM] | IC50 [2] [nM] | IC50 [3, 4] [nM] | IC50 [3, 5] [nM] | Structure (SMILES)
< 50 | < 50 | < 50 | < 50 | – | CC(CC#N)Nc1nc(N[C@H](C)C2CC2)nc(-c2cccc(C(F)(F)F)n2)n1 (stereo partly shown) [Compound 214]
100 to 1000 | 100 to 1000 | < 50 | < 50 | – | FC1(F)CCC(Nc2nc(NC3CCN(c4ccccn4)C3)nc(-c3cccc(C(F)(F)F)n3)n2)C1 (stereo not shown) [Compound 222]
< 50 | < 50 | < 50 | < 50 | – | FC1(F)CCC(Nc2nc(NC3CCC(F)(F)CC3)nc(-c3csc(C(F)(F)F)n3)n2)CC1 [Compound 223]
< 50 | < 50 | < 50 | < 50 | – | FC(F)c1cccc(-c2nc(NC3CCC(F)(F)CC3)nc(NC3CCC(F)(F)CC3)n2)n1 [Compound 224]
< 50 | < 50 | < 50 | < 50 | – | N#CC1(c2cc(Nc3nc(NCC(F)(F)F)nc(-c4cccc(C(F)(F)F)n4)n3)ccn2)CC1 [Compound 226]
100 to 1000 | 100 to 1000 | < 50 | < 50 | – | FC1(F)CCC(Nc2nc(NC3CCN(c4ncccn4)C3)nc(-c3cccc(C(F)(F)F)n3)n2)C1 (stereo not shown) [Compound 227]
< 50 | < 50 | < 50 | < 50 | – | N#CC1(c2cc(Nc3nc(NC4CC5(C4)CC(F)(F)C5)nc(-c4cccc(C(F)(F)F)n4)n3)ccn2)CC1 [Compound 229]
< 50 | < 50 | < 50 | < 50 | – | CC(C)(CC#N)Nc1nc(Nc2ccnc(C(C)(F)F)c2)nc(-c2cccc(C(F)(F)F)n2)n1 [Compound 231]
< 50 | < 50 | < 50 | < 50 | – | FC1(F)CCC(Nc2nc(NC3CCC(F)(F)C3)nc(-c3nccc(C(F)(F)F)n3)n2)C1 (stereo not shown) [Compound 237]
< 50 | < 50 | < 50 | 50 to 100 | – | CC(C)(O)CNc1nc(Nc2cc(F)cc(C#N)c2)nc(-c2cccc(C(F)(F)F)n2)n1 [Compound 244]
< 50 | < 50 | < 50 | 50 to 100 | – | CC(C)(C)Nc1nc(Nc2cc(F)cc(C#N)c2)nc(-c2nccc(C(F)(F)F)n2)n1 [Compound 245]
< 50 | < 50 | < 50 | 50 to 100 | – | CC(C)(C#N)Nc1nc(Nc2ccnc(C(C)(F)F)c2)nc(-c2cccc(C(F)(F)F)n2)n1 [Compound 247]
< 50 | 100 to 1000 | < 50 | 50 to 100 | – | CC(CC#N)Nc1nc(Nc2ccnc(C(C)(F)F)c2)nc(-c2cccc(C(F)(F)F)n2)n1 (stereo not shown) [Compound 250]
< 50 | < 50 | 50 to 100 | 50 to 100 | – | FC1(F)CCC(Nc2nc(NC3CCC(F)(F)C3)nc(-c3cccc(OC(F)(F)F)n3)n2)C1 (stereo not shown) [Compound 252]
< 50 | < 50 | < 50 | 50 to 100 | – | CC(C#N)Nc1nc(Nc2ccnc(C(C)(F)F)c2)nc(-c2cccc(C(F)(F)F)n2)n1 (stereo not shown) [Compound 253]
< 50 | < 50 | < 50 | 100 to 1000 | – | FC1(F)CC(Nc2nc(NC3CC(F)(F)C3)nc(-c3nccc(C(F)(F)F)n3)n2)C1 [Compound 256]
< 50 | < 50 | 50 to 100 | 100 to 1000 | – | N#CC1(c2cc(Nc3nc(NC4CCC(F)(F)C4)nc(-c4nccc(C(F)(F)F)n4)n3)ccn2)CC1 (stereo not shown) [Compound 261]
50 to 100 | 50 to 100 | ≥ 1000 | 100 to 1000 | – | FC1(F)CCC(Nc2nc(NC3CCC(F)(F)CC3)nc(-c3nccc(C(F)(F)F)n3)n2)CC1 [Compound 293]
< 50 | < 50 | < 50 | – | < 50 | FC1(F)CCC(Nc2nc(Nc3ccnc(C(F)(F)F)c3)nc(-c3cncc(C(F)(F)F)n3)n2)CC1 [Compound 389]
< 50 | < 50 | < 50 | – | < 50 | FC1(F)CC[C@H](Nc2nc(Nc3ccnc(C(F)(F)F)c3)nc(-c3cncc(C(F)(F)F)n3)n2)C1 [Compound 391]
< 50 | < 50 | < 50 | – | < 50 | N#CC1(c2cc(Nc3nc(NC4CC(F)(F)C4)nc(-c4cncc(C(F)(F)F)n4)n3)ccn2)CC1 [Compound 401]

Structure (SMILES) | IC50 [1] [nM] | IC50 (IDH2 R140Q) [nM] | IC50 [2] [nM] | IC50 [3, 4] [nM] | IC50 [3, 5] [nM]
C[C@@H](Nc1nc(N[C@H](C)C2CC2)nc(-c2nccc(C(F)(F)F)n2)n1)C1CC1 [Compound 268] | 50 to 100 | 50 to 100 | < 50 | 100 to 1000 | –
